Test results as given in the NIST ThermoML archive (doi:10.1016/j.jct.2007.01.010).

What was measured:
[1] = 101 kPa, Liquid
[2] = xn = mol fraction of the nth substance listed; settings: 101 kPa, Liquid

CCOCCOCCOCCO [2-(2-(2-ethoxyethoxy)ethoxy)ethanol]
[1]
Settings | viscosity [mPa·s]
293.15 K | 8.087
298.15 K | 7.049
303.15 K | 6.421

CCOCCOCCOCCO [2-(2-(2-ethoxyethoxy)ethoxy)ethanol] + CCOC(C)(C)C
viscosity [mPa·s], [2]
Settings | 293.15 K | 298.15 K | 303.15 K
x2 = 0 | 8.087 | 7.049 | 6.421
x2 = 0.0501 | 6.804 | 5.991 | 5.485
x2 = 0.0996 | 5.742 | 5.091 | 4.685
x2 = 0.1502 | 4.816 | 4.304 | 3.982
x2 = 0.1999 | 4.042 | 3.643 | 3.389
x2 = 0.2502 | 3.391 | 3.076 | 2.874
x2 = 0.3005 | 2.841 | 2.597 | 2.437
x2 = 0.3506 | 2.383 | 2.195 | 2.067
x2 = 0.4 | 2.008 | 1.863 | 1.759
x2 = 0.4502 | 1.692 | 1.582 | 1.495
x2 = 0.5 | 1.435 | 1.351 | 1.278
x2 = 0.55 | 1.225 | 1.16 | 1.096
x2 = 0.5955 | 1.067 | 1.013 | 0.959
x2 = 0.6498 | 0.915 | 0.873 | 0.824
x2 = 0.7 | 0.804 | 0.77 | 0.727
x2 = 0.7502 | 0.714 | 0.689 | 0.654
x2 = 0.7982 | 0.647 | 0.628 | 0.598
x2 = 0.8491 | 0.593 | 0.581 | 0.555
x2 = 0.9 | 0.555 | 0.549 | 0.524
x2 = 0.95 | 0.533 | 0.528 | 0.502

CCOC(C)(C)C [2-ethoxy-2-methylpropane]
[1]
Settings | viscosity [mPa·s]
293.15 K | 0.532
298.15 K | 0.504
303.15 K | 0.478

CCOC(C)(C)C [2-ethoxy-2-methylpropane] + CCOCCO
viscosity [mPa·s], [2]
Settings | 293.15 K | 298.15 K | 303.15 K
x1 = 0.05 | 1.943 | 1.691 | 1.515
x1 = 0.1001 | 1.766 | 1.547 | 1.394
x1 = 0.1489 | 1.619 | 1.424 | 1.286
x1 = 0.2002 | 1.476 | 1.306 | 1.184
x1 = 0.2511 | 1.35 | 1.203 | 1.094
x1 = 0.2999 | 1.242 | 1.113 | 1.017
x1 = 0.3486 | 1.146 | 1.031 | 0.947
x1 = 0.4 | 1.057 | 0.955 | 0.879
x1 = 0.4511 | 0.977 | 0.887 | 0.82
x1 = 0.5 | 0.908 | 0.829 | 0.769
x1 = 0.5502 | 0.845 | 0.775 | 0.721
x1 = 0.5999 | 0.791 | 0.729 | 0.679
x1 = 0.652 | 0.74 | 0.685 | 0.64
x1 = 0.6999 | 0.699 | 0.649 | 0.608
x1 = 0.7499 | 0.66 | 0.616 | 0.578
x1 = 0.8 | 0.626 | 0.586 | 0.552
x1 = 0.8505 | 0.597 | 0.56 | 0.528
x1 = 0.9 | 0.571 | 0.538 | 0.508
x1 = 0.9499 | 0.549 | 0.519 | 0.492
x1 = 1 | 0.532 | 0.504 | 0.478

CCOC(C)(C)C [2-ethoxy-2-methylpropane] + CCOCCOCCO
[2], x1 = 1
Settings | viscosity [mPa·s]
293.15 K | 0.532
298.15 K | 0.504
303.15 K | 0.478

CCOC(C)(C)C [2-ethoxy-2-methylpropane] + CCOCCOCCOCCO
[2], x1 = 1
Settings | viscosity [mPa·s]
293.15 K | 0.532
298.15 K | 0.504
303.15 K | 0.478

CCOCCO [2-ethoxyethan-1-ol]
[1]
Settings | viscosity [mPa·s]
293.15 K | 2.142
298.15 K | 1.848
303.15 K | 1.646

CCOCCO [2-ethoxyethan-1-ol] + CCOC(C)(C)C
[2], x2 = 0
Settings | viscosity [mPa·s]
293.15 K | 2.142
298.15 K | 1.848
303.15 K | 1.646

CCOCCOCCO [3,6-dioxa-1-octanol]
[1]
Settings | viscosity [mPa·s]
293.15 K | 4.464
298.15 K | 3.976
303.15 K | 3.531

CCOCCOCCO [3,6-dioxa-1-octanol] + CCOC(C)(C)C
viscosity [mPa·s], [2]
Settings | 293.15 K | 298.15 K | 303.15 K
x2 = 0 | 4.464 | 3.976 | 3.531
x2 = 0.05 | 3.992 | 3.574 | 3.192
x2 = 0.1 | 3.505 | 3.156 | 2.836
x2 = 0.1501 | 3.037 | 2.746 | 2.49
x2 = 0.2 | 2.637 | 2.398 | 2.183
x2 = 0.2498 | 2.289 | 2.093 | 1.912
x2 = 0.2999 | 1.991 | 1.828 | 1.683
x2 = 0.3497 | 1.744 | 1.605 | 1.48
x2 = 0.3999 | 1.526 | 1.413 | 1.312
x2 = 0.4502 | 1.343 | 1.245 | 1.16
x2 = 0.5002 | 1.184 | 1.103 | 1.03
x2 = 0.55 | 1.049 | 0.979 | 0.918
x2 = 0.5997 | 0.932 | 0.872 | 0.82
x2 = 0.6504 | 0.832 | 0.78 | 0.736
x2 = 0.7003 | 0.749 | 0.704 | 0.667
x2 = 0.7503 | 0.682 | 0.643 | 0.611
x2 = 0.7998 | 0.63 | 0.596 | 0.568
x2 = 0.8498 | 0.591 | 0.562 | 0.536
x2 = 0.9 | 0.563 | 0.536 | 0.512
x2 = 0.95 | 0.545 | 0.519 | 0.495
